Reference: patent publication US20090298890A1, “NEW N-METHYL BENZAMIDE DERIVATIVES” (BAYER CROPSCIENCE SA, priority 2006, published 2009)

How the values were obtained:
Pyrenophora teres = assay: In vivo test on Pyrenophora teres (barley net blotch); conditions: barley plants (Express variety), preventive spray 24 hours before contamination, dose 330 ppm, grading 12 days after contamination vs control plants
Procedure: In Vivo Test on Pyrenophora Teres (Barley Net Blotch)
The active ingredients tested are prepared by homogenization in a mixture of acetone/tween/DMSO, then diluted with water to obtain the desired active material concentration.
Barley plants (Express variety), sown on a 50/50 peat soil-pozzolana substrate in starter cups and grown at 12° C., are treated at the 1-leaf stage (10 cm tall) by spraying with the active ingredient prepared as described above. Plants, used as controls, are treated with the mixture of acetone/tween/DMSO/water not containing the active material.
After 24 hours, the plants are contaminated by spraying them with an aqueous suspension of Pyrenophora teres spores (12,000 spores per ml). The spores are collected from a 12-day-old culture. The contaminated barley plants are incubated for 24 hours at about 20° C. and at 100% relative humidity, and then for 12 days at 80% relative humidity.
Grading is carried out 12 days after the contamination, in comparison with the control plants.

Alternaria alternata = assay: Cell test on Alternaria alternata; type: cell-based; conditions: under similar conditions (10 ppm, OD 620 nm after 5 days at 20° C.)
Procedure: Cell Test on Alternaria Alternata The growth of Alternaria alternata is performed on PDA medium at 20° C. under black light during 14 days. The PDA medium is prepared by mixing 39 grams of PDA (Merck) in 1 liter of demineralized water. The medium is sterilized by autoclave 15 minutes at 121° C. After 14 days of growth, the spores of Alternaria alternata are recovered in sterilized water and the concentration of spores adjusted to 10^6 spores per ml. The compounds is solubilized in DMSO and added to sterile liquid glucose/mycopeptone medium (14.6 g/l of D-glucose, 7.1 g/l of mycological peptone (Oxoid) and 1.4 g/l of yeast extract (Merck)) at a concentration of 10 ppm. The medium is inoculated with the spore suspension at a concentration of 10^5 spores per ml. The efficacy of the compounds is assessed by OD measurement at 620 nm after 5 days at 20° C. in comparison with a control.

SMILES | protection (Pyrenophora teres) | activity (Alternaria alternata)
O=C(NCOc1ncc(C(F)(F)F)cc1Cl)c1ccccc1C(F)(F)F [Compound 1, N-({[3-chloro-5-(trifluoromethyl)pyridin-2-yl]oxy}methyl)-2-(trifluoromethyl)benzamide] | at least 60% | 
O=C(NOCc1ncc(C(F)(F)F)cc1Cl)c1c(Cl)cccc1Cl [Compound 501] |  | did not show any activity
O=C(NOCc1ncc(C(F)(F)F)cc1Cl)c1c(F)cccc1F [Compound 502, N-{[3-chloro-5-(trifluoromethyl)pyridin-2-yl]methoxy}-2,6-difluorobenzamide] |  | did not show any activity
